Test results: article PMC12435690, “KYLO-0603, a novel liver-targeting, thyroid hormone receptor-β agonist for the inhibition of MASH progression” (PLOS One, 2025)

How the values were obtained:
in vitro [1] = conditions: human, plasma
Protocol: (§2) We evaluated the metabolic stability of Kylo-0603 in the plasma of CD-1 mice, Sprague–Dawley (SD) rats, beagle dogs, cynomolgus monkeys, and humans. The plasma from the five species was mixed with Kylo-0603 (2 μM) and incubated at 37°C in a thermostatic water tank. The plasma concentrations of Kylo-0603 were monitored via LC-MS/MS at 0, 10, 30, 60, and 120 min.

in vitro [2] = conditions: Sprague-Dawley, rat, plasma
Protocol: as §2

[3] = 182-day long-term dosing toxicity study in Sprague-Dawley rats; assay type: in vivo
Protocol: (§1) To evaluate the preclinical safety profile of Kylo-0603, a novel liver-targeted thyroid hormone receptor β (TRβ) agonist with therapeutic potential, systematic toxicological assessments were conducted in both non-human primates (cynomolgus monkeys) and rodents (Sprague-Dawley rats). […] The no-observed-adverse-effect level (NOAEL) was determined to be 1.5 mg/kg/day. Collectively, these independent toxicological investigations substantiate Kylo-0603’s favorable safety, providing rigorous preclinical support for clinical advancement.

[4] = Metabolic stability in plasma (SD rats); conditions: SD rat plasma
Protocol: as §2

[5] = Metabolic stability in plasma (CD-1 mice)
Protocol: as §2

[6] = tested on: liver of the MASH mouse models (F2 ~ 3); experiment: Gene expression analysis (transcriptome sequencing) in liver of MASH mouse models; assay type: in vivo, C57BL/6J mice
Protocol: Transcriptome sequencing was performed on the Illumina sequencing platform, and the library sequencing and biotechnological analysis were performed by Beijing Novozymes Technology Co.
To explore the mechanism by which Kylo-0603 promotes lipid metabolism, we used Illumina’s NEBNext® UtraTM RNA Library Prep Kit to examine the expression of relevant genes in the livers of the MASH mouse models (F2 ~ 3) after Kylo-0603 administration (Fig 8). We first examined the expression of THR-regulated genes, including iodothyronine deiodinase 1 (Dio1), malic enzyme 1 (Me1), and thyroid hormone responsive (Thrsp). Me1 encodes an enzyme that catalyzes the conversion of malate to pyruvate while concomitantly generating NADPH from NADP, and its upregulation promotes energy metabolism. Thrsp is mainly a nuclear protein induced by thyroid hormones, carbohydrate intake, adipose tissue differentiation and lactation and plays an important role in the regulation of lipid metabolism. […] LDL-R (low-density lipoprotein receptor) promotes the cellular uptake of LDL and facilitates cholesterol degradation. […] This finding was consistent with a dose-dependent reduction in the serum LDL-C level (Fig 9A). […] This therapeutic effect was validated by assessing liver histopathology in animal models. Kylo-0603 inhibited the genes encoding the inflammatory factors Tnfrsf1a, IL6, IL17rb, and IL17ra (Fig 9B).
Fig 9 Effects of Kylo-0603 on the expression of related genes of the MASH mouse models. Total RNA was extracted from the frozen liver tissue of the MASH mouse models (F2 ~ 3), and the mice were injected daily with saline or Kylo-0603 at a dosage of 0.1–3 mg/kg/day. Transcriptome sequencing is based on the Illumina sequencing platform. The relative expression of a gene was calculated by normalizing the true expression level of the target gene to the expression level of that gene in the control group.

[7] = Metabolic stability in plasma (humans); conditions: human
Protocol: as §2

in vitro [8] = conditions: cynomolgus monkey, plasma
Protocol: as §2

[9] = 28-day repeated-dose toxicity study in cynomolgus monkeys; assay type: in vivo
Protocol: as §1

[10] = Metabolic stability in plasma (cynomolgus monkeys); conditions: cynomolgus monkey
Protocol: as §2

[11] = tested on: MASH mouse models (F2 ~ 3); experiment: SHG/TPEF microscopy of liver fibrosis and steatosis in MASH mouse models; assay type: in vivo, C57BL/6J mice; conditions: for SHG fibrosis percentage / percentage of steatosis: 8 weeks; for SHG fibrosis percentage: control 4.36%; for percentage of steatosis: control 21.66%
Protocol: Scanning was conducted on a Genesis® machine, a stain-free TPE/SHG microscopic imaging device manufactured in-house by HistoIndex®, Singapore. The region of interest (ROI) is systematically partitioned into uniformly sized, termed “blocks,” each measuring of 200 μm × 200 μm. These blocks were sequentially imaged individually and in sequence in raster scan mode utilizing a 20x objective lens. Each block has a resolution of 512 × 512 pixels, or 0.4 μm per pixel. Software developed by HistoIndex and Chipmap for image analysis identifies the different lobular regions, the central vein, the confluent region, and the perisinus region. Fibrosis and steatosis in these regions were subsequently measured and quantified in the SHG and TPE images.
As a fundamental component of clinical prognosis in MASH, a precise evaluation of hepatic fibrosis is very crucial. Artificial intelligence-assisted second harmonic generation/two-photon excitation fluorescence (SHG/TPEF) microscopy technique has been introduced because the existing scoring systems are insufficient for capturing the process of hepatic fibrosis regression. This offers a consistent and very precise way to evaluate the pathological characteristics of MASH, especially the serial measurement of collagen fibers and hepatic fibrosis. In this study, we employed second harmonic generation/two-photon excited fluorescence (SHG/TPEF) microscopy integrated with digital image analysis to evaluate liver tissue sections across a larger tissue area from MASH mouse models (F2–F3). This approach enabled systematic analysis of the effects of Kylo-0603 on arresting the progression of hepatic steatosis and fibrosis of liver tissue.
Through quantitative analysis of SHG/TPEF imaging datasets, we conducted a detailed assessment of the specific impacts of varying Kylo-0603 dosages (0.1 mg/kg, 0.3 mg/kg, 1 mg/kg, 3 mg/kg, and 10 mg/kg) on fibrogenesis and steatosis in F2–F3 MASH mouse models. The key findings are systematically summarized as follows: […]

[12] = Metabolic stability in plasma (beagle dogs); conditions: dog
Protocol: as §2

in vitro [13] = conditions: CD-1, mouse, plasma
Protocol: as §2

Q: With `CC(=O)N[C@H]1[C@H](OCCCCCCNC(=O)CCOCC(COCCC(=O)NCCCCCCO[C@@H]2O[C@H](CO)[C@H](O)[C@H](O)[C@H]2NC(C)=O)(COCCC(=O)NCCCCCCO[C@@H]2O[C@H](CO)[C@H](O)[C@H](O)[C@H]2NC(C)=O)NC(=O)CCCCCNC(=O)COc2cc(C)c(Cc3ccc(O)c(C(C)C)c3)c(C)c2)O[C@H](CO)[C@H](O)[C@@H]1O` [Kylo-0603] as the molecule, how does the half-life at 2 μM (in vitro [1]) read?
A: > 6.21 h

Q: And the half-life at 2 μM (in vitro [2])?
A: > 6.21 h

Q: And the pathological changes ([3]; 182 days, maximum dose 1.5 mg/kg/day, 8-week recovery)?
A: only mild Kylo-0603-related pathological changes

Q: What about the “perturbations of the hypothalamic-pituitary-thyroid (HPT) axis” value ([3]; Sprague-Dawley rats) of the same molecule?
A: no perturbations

Q: And the NOAEL at 182 day ([3]; Sprague-Dawley, rat, in vivo, 1.5 mg/kg/day, 182-day study, SD rats, read-out: no-observed-adverse-effect level (NOAEL))?
A: 1.5 mg/kg/day

Q: What about the “plasma stability” value [4] of the same molecule?
A: stable

Q: And the “plasma stability” value [5]?
A: stable

Q: And the Atgl expression [6]?
A: dose-responsive elevation

Q: And the Cpt1a expression [6]?
A: dose-dependent upregulation

Q: What about the Pdk4 expression [6] of the same molecule?
A: significant increases

Q: What about the “Srebf1 and Scd1 expression” value [6] of the same molecule?
A: coordinated downregulation

Q: What about the “genes encoding the inflammatory factors Tnfrsf1a, IL6, IL17rb, IL17ra” value [6] of the same molecule?
A: inhibited

Q: What about the LDL-R gene expression ([6]; dose-dependent) of the same molecule?
A: upregulated

Q: And the “expression of Dio1, Thrsp and Me1” value ([6]; dose-dependent)?
A: significantly upregulated

Q: And the peroxisome-related genes ([6]; dose-dependent)?
A: upregulation

Q: And the “expression of collagen synthesis genes” value ([6]; with increasing doses)?
A: significantly suppressed

Q: And the “plasma stability” value [7]?
A: stable

Q: And the half-life at 2 μM (in vitro [8])?
A: > 6.21 h

Q: And the “perturbations of the hypothalamic-pituitary-thyroid (HPT) axis” value ([9]; cynomolgus monkeys)?
A: no perturbations

Q: And the “macroscopic lesions or histopathological changes” value ([9]; oral 0.5, 1 and 5 mg/kg per day, 28 days, 56-day recovery)?
A: no macroscopic lesions or histopathological changes

Q: What about the “plasma stability” value [10] of the same molecule?
A: stable

Q: And the SHG fibrosis percentage ([11]; 0.1 mg/kg)?
A: 2.92%

Q: What about the percentage of steatosis ([11]; 0.1 mg/kg) of the same molecule?
A: 5.07%

Q: What about the SHG fibrosis percentage ([11]; 0.3 mg/kg) of the same molecule?
A: 2.12%

Q: And the percentage of steatosis ([11]; 0.3 mg/kg)?
A: 4.39%

Q: And the SHG fibrosis percentage ([11]; 1 mg/kg)?
A: 2.16%

Q: What about the percentage of steatosis ([11]; 1 mg/kg) of the same molecule?
A: 4.19%

Q: And the SHG fibrosis percentage ([11]; 3 mg/kg)?
A: 2.03%

Q: What about the percentage of steatosis ([11]; 3 mg/kg) of the same molecule?
A: 2.22%

Q: What about the “reduction of steatosis vs control group” value ([11]; 10 mg/kg) of the same molecule?
A: 90%

Q: And the SHG fibrosis percentage ([11]; 10 mg/kg)?
A: 1.86%

Q: And the “plasma stability” value [12]?
A: unstable

Q: And the half-life at 2 μM (in vitro [13])?
A: > 6.21 h
